According to patent US9944630B1, “Dithiolane carbonate monomers and polymers thereof” (The Board of Trustees of the Leland Stanford Junior …, priority 2014, dated 2018):

Test: Loading of curcumin to polymeric micelles, UV-vis spectroscopy
Assay type: physicochemical
Experimental: The solution was added dropwise to 3 mL deionized water under stirring at room temperature. The solution was stirred for another 30 min and then dialyzed against deionized water for 24 h (MW cutoff=3500). The solution inside dialysis tubing was collected.

## COc1cc(/C=C/C(=O)CC(=O)/C=C/c2ccc(O)c(OC)c2)ccc1O [curcumin, Curcumin]
Copolymer 1 micelle solution
  effective concentration of curcumin dispersed in micelle solution: 187 µg/mL
In hydrophobic micellar cores
  protection from hydrolysis: effectively protect curcumin from hydrolysis
